{
  "source": "paper PMC8341910",
  "about": "“Structural and biophysical insights into the mode of covalent binding of rationally designed potent BMX inhibitors” (RSC Chemical Biology, 2020)",
  "key": {"Jurkat": {"tested_on": "Jurkat", "assay": "Multi cell line growth assay (CellTiter-Glo, 72 h)", "type": "cell-based, human", "conditions": "Homo sapiens, Jurkat, Blood, ND = no growth inhibition observed"}, "DAUDI": {"tested_on": "DAUDI", "assay": "Multi cell line growth assay (CellTiter-Glo, 72 h)", "type": "cell-based, human", "conditions": "Homo sapiens, Daudi, Lymphoid, ND = no growth inhibition observed"}, "AKT2": {"target": "AKT2 (Homo sapiens, UniProt P31751)", "sequence (P31751 whole entry)": "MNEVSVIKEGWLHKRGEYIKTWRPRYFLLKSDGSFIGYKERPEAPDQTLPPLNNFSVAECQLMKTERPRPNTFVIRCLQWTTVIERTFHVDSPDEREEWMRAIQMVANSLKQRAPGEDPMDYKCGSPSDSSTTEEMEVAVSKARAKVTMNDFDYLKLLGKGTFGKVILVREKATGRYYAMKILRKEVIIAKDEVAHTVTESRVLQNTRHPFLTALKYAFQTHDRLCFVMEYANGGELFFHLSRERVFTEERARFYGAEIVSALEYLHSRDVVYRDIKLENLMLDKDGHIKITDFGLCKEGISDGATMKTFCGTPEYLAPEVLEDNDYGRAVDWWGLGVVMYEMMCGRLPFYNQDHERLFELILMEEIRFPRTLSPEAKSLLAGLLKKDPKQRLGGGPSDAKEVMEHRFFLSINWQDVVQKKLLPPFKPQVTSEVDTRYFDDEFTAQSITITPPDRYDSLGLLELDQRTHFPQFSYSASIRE", "assay": "KINOMEscan binding", "conditions": "read-out: % Ctrl AKT2", "protocol": "(§1) Therefore, we included the whole TEC, EGFR and JAK family in our screening, and the Src family and Lkb1, which also have a cysteine within the same sequence alignment. We also included kinases involved in upstream (Src, FAK, PI3K, mTOR, PDK1) and downstream (Akt, PAK1, TAM) regulation of BMX signaling pathway and non-receptor tyrosine protein kinase Abl.\n(§2) Kinome selectivity was performed with DiscoverX KINOMEscan™ technology."}, "SRC": {"target": "SRC (Homo sapiens, UniProt P12931)", "sequence (P12931 whole entry)": "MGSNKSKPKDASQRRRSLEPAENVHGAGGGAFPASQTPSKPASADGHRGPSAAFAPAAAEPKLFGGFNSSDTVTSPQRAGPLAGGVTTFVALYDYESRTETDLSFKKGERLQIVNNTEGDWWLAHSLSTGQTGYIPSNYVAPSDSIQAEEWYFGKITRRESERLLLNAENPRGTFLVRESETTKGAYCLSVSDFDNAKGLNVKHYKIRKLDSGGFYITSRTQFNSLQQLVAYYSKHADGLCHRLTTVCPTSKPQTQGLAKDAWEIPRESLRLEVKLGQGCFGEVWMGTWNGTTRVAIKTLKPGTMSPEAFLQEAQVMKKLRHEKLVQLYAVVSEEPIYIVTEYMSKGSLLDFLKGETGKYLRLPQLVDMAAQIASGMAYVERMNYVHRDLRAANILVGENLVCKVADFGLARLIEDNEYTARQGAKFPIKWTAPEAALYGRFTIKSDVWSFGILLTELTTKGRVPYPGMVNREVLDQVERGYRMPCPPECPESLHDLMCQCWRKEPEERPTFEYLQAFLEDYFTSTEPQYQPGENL", "assay": "KINOMEscan binding", "conditions": "read-out: % Ctrl SRC", "protocol": "as §1, §2"}, "ERBB4": {"target": "ERBB4 (Homo sapiens, UniProt Q15303)", "assay": "KINOMEscan binding", "conditions": "read-out: % Ctrl ERBB4", "protocol": "(§3) Therefore, we included the whole TEC, EGFR and JAK family in our screening, and the Src family and Lkb1, which also have a cysteine within the same sequence alignment.\nas §2"}, "ITK": {"target": "ITK (Homo sapiens, UniProt Q08881)", "sequence (Q08881 whole entry)": "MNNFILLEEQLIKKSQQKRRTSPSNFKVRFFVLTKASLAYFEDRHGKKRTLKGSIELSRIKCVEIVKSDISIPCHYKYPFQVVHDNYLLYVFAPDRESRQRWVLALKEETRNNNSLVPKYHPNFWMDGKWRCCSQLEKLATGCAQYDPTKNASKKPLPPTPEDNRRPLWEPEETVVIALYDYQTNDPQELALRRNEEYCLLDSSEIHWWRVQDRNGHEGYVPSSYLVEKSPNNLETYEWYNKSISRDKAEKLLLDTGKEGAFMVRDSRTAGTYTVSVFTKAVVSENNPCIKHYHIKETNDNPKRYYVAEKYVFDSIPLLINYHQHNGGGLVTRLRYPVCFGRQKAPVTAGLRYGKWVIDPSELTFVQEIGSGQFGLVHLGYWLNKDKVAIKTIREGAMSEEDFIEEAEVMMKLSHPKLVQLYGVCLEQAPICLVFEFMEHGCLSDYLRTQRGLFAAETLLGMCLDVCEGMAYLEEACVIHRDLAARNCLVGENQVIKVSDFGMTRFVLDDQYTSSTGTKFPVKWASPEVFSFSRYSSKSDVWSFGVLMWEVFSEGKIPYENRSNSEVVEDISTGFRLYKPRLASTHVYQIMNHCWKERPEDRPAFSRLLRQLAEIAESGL", "assay": "KINOMEscan binding", "conditions": "read-out: % Ctrl ITK", "protocol": "as §3, §2"}, "TEC": {"target": "TEC (Homo sapiens, UniProt P42680)", "assay": "KINOMEscan binding", "conditions": "read-out: % Ctrl TEC", "protocol": "as §3, §2"}, "ABL1-phosphorylated": {"target": "ABL1-phosphorylated (Homo sapiens, UniProt P00519)", "sequence (P00519 whole entry)": "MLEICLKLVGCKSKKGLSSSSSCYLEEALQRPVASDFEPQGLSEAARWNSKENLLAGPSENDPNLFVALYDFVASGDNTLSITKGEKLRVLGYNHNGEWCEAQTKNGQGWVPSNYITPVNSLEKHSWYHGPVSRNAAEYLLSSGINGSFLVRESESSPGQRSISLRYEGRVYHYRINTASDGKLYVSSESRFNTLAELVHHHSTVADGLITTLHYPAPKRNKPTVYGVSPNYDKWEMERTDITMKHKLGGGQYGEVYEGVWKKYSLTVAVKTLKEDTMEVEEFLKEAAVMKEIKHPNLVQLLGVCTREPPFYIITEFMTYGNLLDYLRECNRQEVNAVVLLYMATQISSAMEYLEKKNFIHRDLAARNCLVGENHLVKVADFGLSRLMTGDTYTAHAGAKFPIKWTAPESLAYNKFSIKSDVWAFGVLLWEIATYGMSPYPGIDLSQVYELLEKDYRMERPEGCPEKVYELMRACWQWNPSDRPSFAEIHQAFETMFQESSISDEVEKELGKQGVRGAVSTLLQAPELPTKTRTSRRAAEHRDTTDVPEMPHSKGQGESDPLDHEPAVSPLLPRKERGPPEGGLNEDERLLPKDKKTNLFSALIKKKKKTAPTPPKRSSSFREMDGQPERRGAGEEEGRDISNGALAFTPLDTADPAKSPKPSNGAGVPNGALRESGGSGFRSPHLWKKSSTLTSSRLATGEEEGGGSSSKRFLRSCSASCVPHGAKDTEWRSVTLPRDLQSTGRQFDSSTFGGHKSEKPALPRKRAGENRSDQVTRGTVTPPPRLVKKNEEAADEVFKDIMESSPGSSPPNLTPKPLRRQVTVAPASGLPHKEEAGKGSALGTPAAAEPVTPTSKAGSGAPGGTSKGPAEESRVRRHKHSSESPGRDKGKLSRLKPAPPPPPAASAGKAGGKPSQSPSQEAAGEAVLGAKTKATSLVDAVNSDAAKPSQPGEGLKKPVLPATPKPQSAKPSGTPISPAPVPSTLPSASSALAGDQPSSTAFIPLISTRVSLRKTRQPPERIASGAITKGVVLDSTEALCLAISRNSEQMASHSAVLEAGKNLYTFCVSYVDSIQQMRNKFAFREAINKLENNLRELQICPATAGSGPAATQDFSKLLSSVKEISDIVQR", "assay": "KINOMEscan binding", "conditions": "read-out: % Ctrl ABL1-phosphorylated", "protocol": "as §1, §2"}, "[1]": {"target": "JAK3(JH1domain-catalytic) (Homo sapiens, UniProt P52333)", "sequence (P52333 814-1124 limits assumed)": "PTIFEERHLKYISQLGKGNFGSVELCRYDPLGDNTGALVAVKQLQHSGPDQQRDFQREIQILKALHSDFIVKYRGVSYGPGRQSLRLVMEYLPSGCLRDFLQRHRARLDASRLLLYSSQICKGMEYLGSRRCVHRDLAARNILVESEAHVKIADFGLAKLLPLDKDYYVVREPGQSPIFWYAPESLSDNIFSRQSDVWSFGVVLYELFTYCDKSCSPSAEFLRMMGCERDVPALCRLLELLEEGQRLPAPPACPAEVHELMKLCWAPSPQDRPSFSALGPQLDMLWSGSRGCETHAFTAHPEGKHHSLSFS", "assay": "KINOMEscan binding", "conditions": "read-out: % Ctrl JAK3(JH1domain-catalytic)", "protocol": "as §1, §2"}, "BMX": {"target": "T1, BMX (Homo sapiens, UniProt P51813)", "T1 sequence (P51813 1-675)": "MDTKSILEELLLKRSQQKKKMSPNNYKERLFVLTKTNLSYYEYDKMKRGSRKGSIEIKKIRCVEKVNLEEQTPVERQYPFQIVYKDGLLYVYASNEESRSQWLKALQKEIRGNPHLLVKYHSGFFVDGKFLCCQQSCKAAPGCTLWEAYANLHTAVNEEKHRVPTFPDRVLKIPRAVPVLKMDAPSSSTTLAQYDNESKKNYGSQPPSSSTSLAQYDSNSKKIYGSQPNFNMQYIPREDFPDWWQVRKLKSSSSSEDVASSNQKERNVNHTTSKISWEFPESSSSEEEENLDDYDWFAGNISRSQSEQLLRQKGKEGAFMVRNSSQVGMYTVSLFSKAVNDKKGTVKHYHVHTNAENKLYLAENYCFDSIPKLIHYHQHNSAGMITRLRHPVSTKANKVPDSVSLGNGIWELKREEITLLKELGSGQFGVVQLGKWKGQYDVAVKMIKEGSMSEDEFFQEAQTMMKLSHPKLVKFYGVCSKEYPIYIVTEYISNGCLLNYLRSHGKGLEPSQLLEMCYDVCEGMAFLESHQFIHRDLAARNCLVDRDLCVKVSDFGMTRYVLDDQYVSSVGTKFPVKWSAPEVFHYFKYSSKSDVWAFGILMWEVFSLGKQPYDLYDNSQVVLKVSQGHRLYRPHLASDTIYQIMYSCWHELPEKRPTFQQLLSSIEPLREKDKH", "assay": "KINOMEscan binding", "conditions": "read-out: % Ctrl BMX", "protocol": "as §3, §2"}, "PIK3CA": {"target": "PIK3CA (Homo sapiens, UniProt P42336)", "assay": "KINOMEscan binding", "conditions": "read-out: % Ctrl PIK3CA", "protocol": "as §1, §2"}, "PIK3CB": {"target": "PIK3CB (Homo sapiens, UniProt P42338)", "assay": "KINOMEscan binding", "conditions": "read-out: % Ctrl PIK3CB", "protocol": "as §1, §2"}, "HCK": {"target": "HCK (Homo sapiens, UniProt P08631)", "sequence (P08631 whole entry)": "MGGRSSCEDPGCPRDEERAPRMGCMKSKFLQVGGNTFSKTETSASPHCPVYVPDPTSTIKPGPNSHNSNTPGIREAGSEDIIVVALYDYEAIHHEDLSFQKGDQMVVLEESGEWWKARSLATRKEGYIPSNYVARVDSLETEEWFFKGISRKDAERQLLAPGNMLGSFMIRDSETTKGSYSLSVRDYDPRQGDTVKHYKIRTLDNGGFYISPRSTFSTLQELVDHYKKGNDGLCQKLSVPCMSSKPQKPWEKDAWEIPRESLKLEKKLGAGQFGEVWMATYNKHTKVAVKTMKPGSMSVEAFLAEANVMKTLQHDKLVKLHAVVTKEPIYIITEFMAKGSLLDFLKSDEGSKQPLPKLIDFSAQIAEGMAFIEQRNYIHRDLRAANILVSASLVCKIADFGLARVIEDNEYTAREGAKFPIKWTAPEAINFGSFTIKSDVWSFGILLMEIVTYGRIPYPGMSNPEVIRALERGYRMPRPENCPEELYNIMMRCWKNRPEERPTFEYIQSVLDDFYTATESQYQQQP", "assay": "KINOMEscan binding", "conditions": "read-out: % Ctrl HCK", "protocol": "as §3, §2"}, "[2]": {"target": "JAK1(JH1domain-catalytic) (Homo sapiens, UniProt P23458)", "sequence (P23458 867-1154 limits assumed)": "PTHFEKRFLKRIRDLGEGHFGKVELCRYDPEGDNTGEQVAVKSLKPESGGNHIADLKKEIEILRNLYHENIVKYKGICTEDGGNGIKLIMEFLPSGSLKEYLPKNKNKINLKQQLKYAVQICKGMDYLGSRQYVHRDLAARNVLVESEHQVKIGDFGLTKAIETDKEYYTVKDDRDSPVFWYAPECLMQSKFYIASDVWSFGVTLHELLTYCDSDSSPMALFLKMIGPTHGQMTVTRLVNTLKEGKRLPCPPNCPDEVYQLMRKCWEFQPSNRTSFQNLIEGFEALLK", "assay": "KINOMEscan binding", "conditions": "read-out: % Ctrl JAK1(JH1domain-catalytic)", "protocol": "as §3, §2"}, "LYN": {"target": "LYN (Homo sapiens, UniProt P07948)", "sequence (P07948 whole entry)": "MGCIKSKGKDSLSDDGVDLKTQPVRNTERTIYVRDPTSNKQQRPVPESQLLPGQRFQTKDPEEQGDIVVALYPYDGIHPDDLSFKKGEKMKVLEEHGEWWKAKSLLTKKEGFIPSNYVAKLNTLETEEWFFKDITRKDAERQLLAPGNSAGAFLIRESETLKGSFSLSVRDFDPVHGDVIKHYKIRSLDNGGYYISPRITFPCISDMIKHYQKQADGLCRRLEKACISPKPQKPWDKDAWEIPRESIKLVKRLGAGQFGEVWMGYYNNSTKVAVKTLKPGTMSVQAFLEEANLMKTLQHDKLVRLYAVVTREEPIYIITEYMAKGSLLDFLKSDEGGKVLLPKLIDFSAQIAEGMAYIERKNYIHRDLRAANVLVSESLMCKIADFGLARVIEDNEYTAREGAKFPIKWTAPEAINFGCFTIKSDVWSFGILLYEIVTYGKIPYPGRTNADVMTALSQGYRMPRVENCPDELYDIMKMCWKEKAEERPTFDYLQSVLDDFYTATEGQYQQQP", "assay": "KINOMEscan binding", "conditions": "read-out: % Ctrl LYN", "protocol": "as §1, §2"}},
  "data": [
    {"smiles": "C=CC(=O)Nc1cc(-n2c(=O)ccc3cnc4cc(-c5ccc(NS(C)(=O)=O)cc5)ccc4c32)ccc1C", "note": "[JS24]", "values": [
      {"measurement": "GI50", "setting": "Jurkat", "result": 5.48, "unit": "µM"},
      {"measurement": "GI50", "setting": "DAUDI", "result": "1.27 ± 0.05", "unit": "µM"}
    ]},
    {"smiles": "C=CC(=O)Nc1cc(C)cc(-n2c(=O)ccc3cnc4cc(-c5ccc(NS(C)(=O)=O)cc5)ccc4c32)c1", "note": "[JS25]", "values": [
      {"measurement": "remaining binding at 1 µM", "setting": "AKT2", "result": 94, "unit": "%"},
      {"measurement": "remaining binding at 1 µM", "setting": "SRC", "result": 92, "unit": "%"},
      {"measurement": "remaining binding at 1 µM", "setting": "ERBB4", "result": 66, "unit": "%"},
      {"measurement": "remaining binding at 1 µM", "setting": "ITK", "result": 4.7, "unit": "%"},
      {"measurement": "remaining binding at 1 µM", "setting": "TEC", "result": 0.4, "unit": "%"},
      {"measurement": "remaining binding at 1 µM", "setting": "ABL1-phosphorylated", "result": 100, "unit": "%"},
      {"measurement": "remaining binding at 1 µM", "setting": "[1]", "result": 21, "unit": "%"},
      {"measurement": "remaining binding at 1 µM", "setting": "BMX", "result": 1.3, "unit": "%"},
      {"measurement": "remaining binding at 1 µM", "setting": "PIK3CA", "result": 79, "unit": "%"},
      {"measurement": "remaining binding at 1 µM", "setting": "PIK3CB", "result": 89, "unit": "%"},
      {"measurement": "remaining binding at 1 µM", "setting": "HCK", "result": 95, "unit": "%"},
      {"measurement": "remaining binding at 1 µM", "setting": "[2]", "result": 93, "unit": "%"},
      {"measurement": "remaining binding at 1 µM", "setting": "LYN", "result": 100, "unit": "%"}
    ]}
  ]
}
